We go through 22 compounds from patent US11192889B2, “Tetrahydronaphthyridinepentanamide integrin antagonists” (The Rockefeller University, priority 2016, dated 2021).

Assay [1] deals with T1, HEK-293-αVβ3 cells (Homo sapiens, UniProt P05106+P06756). The assay can be described thus: AP5 Binding Assay. Type of assay: cell-based. The settings on record: for activation at 10 µM: relative to AP5 expression induced by cilengitide, read-out: AP5 expression induced at the highest concentration; for EC50: concentration inducing 50% of the AP5 expression induced by 1 μM cilengitide. From the text:
(§1) HEK-293 Cells Expressing αVβ3. HEK-293 cells were transfected using lipofectamine 2000 (Invitrogen #11668030) with the cDNA for αV using the pEF1/V5-His A vector and the cDNA for β3 using the vector pcDNA3.1. Cells expressing αVβ3 were identified by their reaction with murine monoclonal antibodies (mAbs) LM609 and 7E3, and stable cell lines were established by repetitive sorting using LM609. […] HEK-293-αVβ3 cells for assays are counted in an automated cell counter (ADVIA 120) and adjusted to values appropriate for each assay.
AP5 Binding Assay. HEK-293-αVβ3 cells are harvested using 0.05% trypsin 0.5 mM EDTA, washed with HBMT once, and resuspended in HBMT containing 1 mM Mg2+ and 2 mM Ca2+. The cells are counted and adjusted to 0.5×10^6 cells per sample. The compound to be tested and fluorescently labeled mAb AP5 (either Alexa 488 or Alexa 674; 10 μg/mL) are added and incubated for 30 minutes at 37° C. The cells are then washed and analyzed by flow cytometry (BD FACSCalibur) at the appropriate wavelength for detecting the AP5 fluorophore. In each assay, cilengitide (1 μM) and 10 mM EDTA are included as positive controls and untreated cells are used as the negative control. The concentration of the test compound required to induce the expression of 50% of the AP5 expression induced by cilengitide is calculated and defined as the EC50. The EC50 for cilengitide was determined based on the expression induced by EDTA.

Assay [2] deals with T1, HEK-293-αVβ3 cells. As to the kind of experiment: αVβ3 Cell Adhesion to Fibrinogen Assay. Type of assay: cell-based. The arrangement: IC50; other: dose reducing by 50% the adhesion of HEK-293-αVβ3 cells to fibrinogen; untreated cells 100% adhesion, 10 mM EDTA 0%. The settings on record: for IC50: dose reducing by 50% the adhesion of HEK-293-αVβ3 cells to fibrinogen, separate determinations listed.
Description: as §1
αVβ3 Cell Adhesion to Fibrinogen Assay. Polystyrene 96-well microtiter plates (Costar, 3590) are precoated with 3.5 μg/mL of purified fibrinogen (Enzyme Research Laboratories) in 0.15 M NaCl, 0.01 M Tris/HCL, pH 7.4 for 1 hour at 37° C. The wells are then washed and incubated with HEPES-Buffered Modified Tyrode's solution (HBMT; 0.128 M NaCl, 10 mM HEPES, 12 mM NaHCO3, 0.4 mM NaH2PO4, 2.7 mM KCl, 0.35% bovine serum albumin (Fisher), 0.1% glucose, pH 7.4) for 1 hour at room temperature or overnight at 4° C. Wells are washed with HBMT containing 1 mM Mg2+ and 2 mM Ca2+ and then 50 μL of HEK-293-αVβ3 cells that have been pretreated with the compound to be tested for 20 minutes at room temperature are added to each well at a concentration of 3,000 cells/μL. After 30-32 minutes the wells are washed with HBMT containing Ca2+ and Mg2+ three times and then the adherent cells are lysed and the acid phosphatase activity that is released is measured by: 1. adding phosphatase substrate (Sigma EC 224-246-5) at 2 mg/mL in 0.1 M Na citrate, pH 5.6, 0.1% triton X-100 for 1 hour at room temperature; 2. stopping the reaction by adding 50 μL of 2 M NaOH; and 3. analyzing the samples in a spectrophotometer at 405 nm. In each assay, 10 mM EDTA is used as a positive control and untreated cells are used as a negative control. The IC50 is the dose of test compound that reduces by 50% the adhesion of the HEK-293-αVβ3 cells, taking the results with untreated cells as 100% and the results in the presence of EDTA as 0%. In some instances more than one IC50 determination was made, in which case, results of separate determinations are reported. IC50's were not determined for all compounds in the table; for some of these test compounds the inhibition at specific doses are reported. In some instances, the test compound produced a greater reduction than 10 mM EDTA, and these are shown as negative numbers.

Structures are written as SMILES. Values joined by “and” are separate entries in the source; they are usually repeats but may differ in a detail not shown here. Identical values can stand only once.

T1 sequence (P05106 whole entry): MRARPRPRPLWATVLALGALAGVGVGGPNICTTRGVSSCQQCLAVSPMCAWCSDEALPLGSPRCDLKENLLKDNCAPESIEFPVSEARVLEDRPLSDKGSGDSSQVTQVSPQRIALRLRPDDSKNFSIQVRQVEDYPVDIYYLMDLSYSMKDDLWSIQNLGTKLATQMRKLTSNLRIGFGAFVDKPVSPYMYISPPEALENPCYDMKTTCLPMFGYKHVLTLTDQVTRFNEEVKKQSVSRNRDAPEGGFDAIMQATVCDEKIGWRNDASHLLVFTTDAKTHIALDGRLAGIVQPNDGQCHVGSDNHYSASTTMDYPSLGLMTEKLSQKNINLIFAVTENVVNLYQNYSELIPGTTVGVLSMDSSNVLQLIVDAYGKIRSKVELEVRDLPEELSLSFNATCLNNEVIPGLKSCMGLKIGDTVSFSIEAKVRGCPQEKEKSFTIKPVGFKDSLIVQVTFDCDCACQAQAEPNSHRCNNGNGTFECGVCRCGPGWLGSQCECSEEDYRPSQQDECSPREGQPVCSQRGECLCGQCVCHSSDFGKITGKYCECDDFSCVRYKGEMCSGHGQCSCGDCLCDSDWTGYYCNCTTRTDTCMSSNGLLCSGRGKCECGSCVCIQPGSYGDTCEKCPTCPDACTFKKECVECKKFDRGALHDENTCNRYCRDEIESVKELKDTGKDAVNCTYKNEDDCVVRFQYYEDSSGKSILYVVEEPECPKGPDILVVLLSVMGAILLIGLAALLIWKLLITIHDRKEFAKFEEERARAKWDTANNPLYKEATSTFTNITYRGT
T1 sequence (P06756 whole entry): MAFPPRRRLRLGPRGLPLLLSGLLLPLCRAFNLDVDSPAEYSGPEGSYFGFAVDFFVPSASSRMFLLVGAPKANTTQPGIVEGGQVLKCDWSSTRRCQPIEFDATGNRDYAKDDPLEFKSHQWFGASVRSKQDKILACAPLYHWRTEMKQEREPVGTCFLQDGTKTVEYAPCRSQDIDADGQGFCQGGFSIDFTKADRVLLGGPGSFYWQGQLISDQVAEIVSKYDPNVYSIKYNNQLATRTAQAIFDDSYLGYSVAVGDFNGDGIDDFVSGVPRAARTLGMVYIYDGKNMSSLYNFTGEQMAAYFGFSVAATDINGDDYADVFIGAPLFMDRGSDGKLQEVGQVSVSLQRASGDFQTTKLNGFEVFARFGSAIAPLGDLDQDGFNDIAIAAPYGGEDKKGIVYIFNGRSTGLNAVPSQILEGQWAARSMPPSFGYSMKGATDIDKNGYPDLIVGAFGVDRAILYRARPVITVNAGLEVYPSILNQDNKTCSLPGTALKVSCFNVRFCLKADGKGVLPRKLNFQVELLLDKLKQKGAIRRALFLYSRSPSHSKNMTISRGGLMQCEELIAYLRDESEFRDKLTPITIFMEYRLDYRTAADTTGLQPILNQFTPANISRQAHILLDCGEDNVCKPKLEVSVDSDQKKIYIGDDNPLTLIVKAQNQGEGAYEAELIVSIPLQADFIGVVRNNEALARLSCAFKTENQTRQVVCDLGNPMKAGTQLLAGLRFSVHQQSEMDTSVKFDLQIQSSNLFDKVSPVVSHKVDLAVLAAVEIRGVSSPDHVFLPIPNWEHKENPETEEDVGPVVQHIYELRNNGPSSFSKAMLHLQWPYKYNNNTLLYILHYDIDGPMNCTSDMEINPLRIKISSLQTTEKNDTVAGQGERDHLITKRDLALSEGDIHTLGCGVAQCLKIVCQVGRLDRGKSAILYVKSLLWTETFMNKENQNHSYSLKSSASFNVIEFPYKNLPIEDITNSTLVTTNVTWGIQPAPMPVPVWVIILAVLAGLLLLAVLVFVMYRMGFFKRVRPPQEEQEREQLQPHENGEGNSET

Turning to `O=C(CCCCc1ccc2c(n1)NCCC2)NCCC(NC(=O)c1ncc(-c2ccccc2)s1)C(=O)O` (stereo not shown) [Example 72, 2-[(5-phenylthiazole-2-carbonyl)amino]-4-[5-(5,6,7,8-tetrahydro-1,8-naphthyridin-2-yl)pentanoylamino]butanoic acid], on HEK-293-αVβ3 cells [1], the activation at 10 µM was 6% and the EC50 was over 10000 nM. Also, the IC50 at HEK-293-αVβ3 cells [2] is 181 nM and 90.4 nM and 185 nM.
As to `CC(C)Cc1cn(C(CCNC(=O)CCCCc2ccc3c(n2)NCCC3)C(=O)O)nn1` (stereo not shown) [Example 77, 2-(4-isobutyltriazol-1-yl)-4-[5-(5,6,7,8-tetrahydro-1,8-naphthyridin-2-yl)pentanoylamino]butanoic acid], at HEK-293-αVβ3 cells [1], the activation at 10 µM is 8% and the EC50 is over 10000 nM. The IC50 at HEK-293-αVβ3 cells [2] turned out to be 2020 nM.
Take `O=C(CCCCc1ccc2c(n1)NCCC2)NCCC(NC(=O)c1nc2ccccc2s1)C(=O)O` (stereo not shown) [Example 75, 2-(1,3-benzothiazole-2-carbonylamino)-4-[5-(5,6,7,8-tetrahydro-1,8-naphthyridin-2-yl)pentanoylamino]butanoic acid]: on HEK-293-αVβ3 cells [1], the activation at 10 µM is 9% and the EC50 was over 10000 nM. On HEK-293-αVβ3 cells [2], the IC50 was < 100 nM and 54.6 nM and 65.1 nM.
`O=C(CCCCc1ccc2c(n1)NCCC2)NCC[C@H](Nc1ncc(-c2ccccc2)cn1)C(=O)O` [Example 92, (2S)-2-[(5-phenylpyrimidin-2-yl)amino]-4-[5-(5,6,7,8-tetrahydro-1,8-naphthyridin-2-yl)pentanoylamino]butanoic acid] gave an EC50 at HEK-293-αVβ3 cells [1] of over 10000 nM. This compound also showed an IC50 on HEK-293-αVβ3 cells [2] of 201 nM.
For `O=C(CCCCc1ccc2c(n1)NCCC2)NCCC(C(=O)O)c1cnc2ccccc2c1` (stereo not shown) [Example 84, 2-(quinolin-3-yl)-4-(5-(5,6,7,8-tetrahydro-1,8-naphthyridin-2-yl)pentanamido)butanoic acid], at HEK-293-αVβ3 cells [1], the activation at 10 µM worked out at 31% and the EC50 was over 10000 nM. Also, at HEK-293-αVβ3 cells [2], half-maximal inhibition (IC50) required 121 nM.
On HEK-293-αVβ3 cells [1], `O=C(O)CCCNC(=O)CCCCc1ccc2c(n1)NCCC2` [Example 1, 4-[5-(5,6,7,8-tetrahydro-1,8-naphthyridin-2-yl)pentanoylamino]butanoic acid] yielded an EC50 of over 100000 nM. In addition, the IC50 at HEK-293-αVβ3 cells [2] came to 1350 nM.
Consider `Cc1ccc(S(=O)(=O)NC(CCNC(=O)CCCCc2ccc3c(n2)NCCC3)C(=O)O)cc1` (stereo not shown) [Example 14, 2-(p-Tolylsulfonylamino)-4-[5-(5,6,7,8-tetrahydro-1,8-naphthyridin-2-yl)pentanoylamino]butanoic acid], for which, on HEK-293-αVβ3 cells [1], the activation at 10 µM was determined as 7% and the EC50 was over 10000 nM. On HEK-293-αVβ3 cells [2], this compound came in with an IC50 of 6300 nM.
In the case of `COc1ccc(COC(=O)NC(CCNC(=O)CCCCc2ccc3c(n2)NCCC3)C(=O)O)cc1` (stereo not shown) [Example 60], on HEK-293-αVβ3 cells [1], the activation at 10 µM came out at 10% and the EC50 was over 10000 nM. The IC50 on HEK-293-αVβ3 cells [2] came out at 579 nM.
In the case of `O=C(CCCCc1ccc2c(n1)NCCC2)NCCC(NC(=O)OCC(F)(F)C(F)(F)F)C(=O)O` (stereo not shown) [Example 62], on HEK-293-αVβ3 cells [1], the activation at 10 µM stood at 12% and the EC50 is over 10000 nM. For the same compound, half-maximal inhibition at HEK-293-αVβ3 cells [2] (IC50) required 628 nM.
For the compound `O=C(CCCCc1ccc2c(n1)NCCC2)NCCC(C(=O)O)c1ccc(Oc2ccccc2)nc1` (stereo not shown) [Example 80, 2-(6-phenoxy-3-pyridyl)-4-[5-(5,6,7,8-tetrahydro-1,8-naphthyridin-2-yl)pentanoylamino]butanoic acid], on HEK-293-αVβ3 cells [1], the activation at 10 µM was determined as 7.5% and the EC50 was over 10000 nM. In addition, on HEK-293-αVβ3 cells [2], the IC50 is 1570 nM and 429 nM.
As to `COC(=O)C(CCNC(=O)CCCCc1ccc2c(n1)NCCC2)NC(=O)OCc1ccccc1` (stereo not shown) [Example 5, Methyl 2-(benzyloxycarbonylamino)-4-[5-(5,6,7,8-tetrahydro-1,8-naphthyridin-2-yl)pentanoylamino]butanoate], on HEK-293-αVβ3 cells [1], the activation at 10 µM turned out to be 23% and the EC50 was over 10000 nM. The same compound registered an IC50 against HEK-293-αVβ3 cells [2] of 2450 nM.
For `COc1cccc(C(=O)NC(CCNC(=O)CCCCc2ccc3c(n2)NCCC3)C(=O)O)n1` (stereo not shown) [Example 71, 2-[(6-methoxypyridine-2-carbonyl)amino]-4-[5-(5,6,7,8-tetrahydro-1,8-naphthyridin-2-yl)pentanoylamino]butanoic acid], in that order: 9%, over 10000 nM and 1140 nM.
On to `O=C(CCCCc1ccc2c(n1)NCCC2)NCCC(NC(=O)OCC1CCC(F)(F)CC1)C(=O)O` (stereo not shown) [Example 64], for which, on HEK-293-αVβ3 cells [1], the activation at 10 µM is 21% and the EC50 is over 10000 nM. On HEK-293-αVβ3 cells [2], the IC50 is 248 nM and 359 nM.
Take `O=C(CCCCc1ccc2c(n1)NCCC2)NCCC(NS(=O)(=O)c1cccnc1)C(=O)O` (stereo not shown) [Example 44]: on HEK-293-αVβ3 cells [1], the activation at 10 µM stood at 22% and the EC50 is over 10000 nM. On HEK-293-αVβ3 cells [2] (dose 0.1 (table in μM), untreated cells 100% adhesion, 10 mM EDTA 0%), the “inhibition at specific dose 0.1” value is recorded as 40%. Besides, the IC50 against HEK-293-αVβ3 cells [2] was determined as 1330 nM.
As to `O=C(CCCCc1nc2c(cc1C1CC1)CCCN2)NCCC(Nc1nc2ccccc2o1)C(=O)O` (stereo not shown) [Example 83, 2-(1,3-benzoxazol-2-ylamino)-4-[5-(3-cyclopropyl-5,6,7,8-tetrahydro-1,8-naphthyridin-2-yl)pentanoylamino]butanoic acid], at HEK-293-αVβ3 cells [1], the activation at 10 µM was 5% and the EC50 was over 10000 nM. The compound also displayed an IC50 against HEK-293-αVβ3 cells [2] of 128 nM.
Take `O=C(CCCCc1ccc2c(n1)NCCC2)NCCC(Nc1ncc(-c2ccccc2)cn1)C(=O)O` (stereo not shown) [Example 81, 2-[(5-phenylpyrimidin-2-yl)amino]-4-[5-(5,6,7,8-tetrahydro-1,8-naphthyridin-2-yl)pentanoylamino]butanoic acid]: at HEK-293-αVβ3 cells [1], the activation at 10 µM came out at 9% and the EC50 was over 10000 nM. Besides, the IC50 against HEK-293-αVβ3 cells [2] was < 100 nM and 101 nM and 143 nM.
As for `O=C(CCCCc1ccc2c(n1)NCCC2)NCCC(NC(=O)OCCc1ccccc1)C(=O)O` (stereo not shown) [Example 61], on HEK-293-αVβ3 cells [1], the activation at 10 µM came out at 14% and the EC50 is over 10000 nM. For the same compound, 586 nM corresponded to half-maximal inhibition on HEK-293-αVβ3 cells [2] (IC50).
On the same counts, the results for `COC(=O)NC(CCNC(=O)CCCCc1ccc2c(n1)NCCC2)C(=O)O` (stereo not shown) [Example 36] are 12%, over 10000 nM and under 100 nM.
As for `O=C(CCCCc1ccc2c(n1)NCCC2)NCCC(C(=O)O)n1cnc(-c2ccccc2)n1` (single isomer, unassigned) [Example 93, (S or R)-2-(3-phenyl-1,2,4-triazol-1-yl)-4-[5-(5,6,7,8-tetrahydro-1,8-naphthyridin-2-yl)pentanoylamino]-butanoic acid], the EC50 at HEK-293-αVβ3 cells [1] was over 10000 nM. On HEK-293-αVβ3 cells [2], this compound showed an IC50 of 288 nM.
As for `O=C(CCCCc1ccc2c(n1)NCCC2)NCCC(NC(=O)c1ccccn1)C(=O)O` (stereo not shown) [Example 25], on HEK-293-αVβ3 cells [1], the activation at 10 µM was found to be 16% and the EC50 is over 10000 nM. This compound gave an IC50 on HEK-293-αVβ3 cells [2] of under 100 nM.
As to `O=C(CCCCc1ccc2c(n1)NCCC2)NCCC(C(=O)O)c1ccccc1` (stereo not shown) [Example 9, 2-Phenyl-4-[5-(5,6,7,8-tetrahydro-1,8-naphthyridin-2-yl)pentanoylamino]butanoic acid], on HEK-293-αVβ3 cells [1], the activation at 10 µM came out at 11% and the EC50 was over 10000 nM. The IC50 against HEK-293-αVβ3 cells [2] is 3720 nM and 1770 nM.
Turning to `O=C(CCCCc1ccc2c(n1)NCCC2)NCCC(NC(=O)OCc1cccc(F)c1)C(=O)O` (stereo not shown) [Example 66], on HEK-293-αVβ3 cells [1], the activation at 10 µM is 12% and the EC50 is over 10000 nM. The compound further returned an IC50 on HEK-293-αVβ3 cells [2] of 533 nM.
